Counter-ions that a name gives are not always drawn. One block for each compound: values may come before it.
Assays:
[1] = biological target: T1, PI3Kγ (Homo sapiens, UniProt P48736); assay: PI3 Kinase HTRF assay, PI3Kγ; format: biochemical; conditions: Between 1 μM and 10 μM; read-out: PI3K γ IC50
T1 construct: purchased Millipore Corporation 14-558-K
From the text: (§1) A PI3-Kinase HTRF® assay kit (cat No. 33-016) purchased from Millipore Corporation was used to screen compounds provided herein. This assay used specific, high affinity binding of the GRP1 pleckstrin homology (PH) domain to PIP3, the product of a Class 1A or 1B PI3 Kinase acting on its physiological substrate PIP2. During the detection phase of the assay, a complex was generated between the GST-tagged PH domain and biotinylated short chain PIP3. The biotinylated PIP3 and the GST-tagged PH domain recruited fluorophores (Streptavidin-Allophycocyanin and Europium-labeled anti-GST respectively) to form the fluorescence resonance energy transfer (FRET) architecture, generating a stable time-resolved FRET signal. The FRET complex was disrupted in a competitive manner by non-biotinylated PIP3, a product formed in the PI3 Kinase assay.
(§2) PI3 Kinase α, β, γ and δ activity was assayed using the PI3 Kinase HTRF® assay kit (catalogue No. 33-016) purchased from Millipore Corporation. Purified recombinant PI3Kα (catalogue No. 14-602-K), PI3Kβ (catalogue No. 14-603-K), PI3Kγ (catalogue No. 14-558-K) and PI3Kδ (catalogue No. 14-604-K) were obtained from Millipore Corporation. Purified recombinant PI3K enzyme was used to catalyze the phosphorylation of phosphatidylinositol 4,5-bisphosphate (PIP2 at 10 μM) to phosphatidylinositol 3,4,5-trisphosphate (PIP3) in the presence of 10 μM ATP. The assay was carried out in 384-well format and detected using a Perkin Elmer EnVision Xcite Multilabel Reader. Emission ratios were converted into percent inhibitions and imported into GraphPad Prism software. The concentration necessary to achieve inhibition of enzyme activity by 50% (IC50) was calculated using concentrations ranging from 20 μM to 0.1 nM (12-point curve). IC50 values were determined using a nonlinear regression model available in GraphPad Prism 5.

[2] = tested on: Balb/c splenic B cells; assay: B cell activation and proliferation assay (Alamar Blue); format: cell-based; conditions: Mus musculus
Experimental: The ability of one or more subject compounds to inhibit B cell activitation and proliferation is determined according to standard procedures known in the art. For example, an in vitro cellular proliferation assay is established that measures the metabolic activity of live cells. The assay is performed in a 96 well microtiter plate using Alamar Blue reduction. Balb/c splenic B cells are purified over a Ficoll-Paque™ PLUS gradient followed by magnetic cell separation using a MACS B cell Isolation Kit (Miletenyi). Cells are plated in 90 μl at 50,000 cells/well in B Cell Media (RPMI+10% FBS+Penn/Strep+50 μM bME+5 mM HEPES). A compound provided herein is diluted in B Cell Media and added in a 10 μl volume. Plates are incubated for 30 min at 37° C. and 5% CO2 (0.2% DMSO final concentration). A 50 μl B cell stimulation cocktail is then added containing either 10 μg/ml LPS or 5 μg/ml F(ab′)2 Donkey anti-mouse IgM plus 2 ng/ml recombinant mouse IL4 in B Cell Media. Plates are incubated for 72 hours at 37° C. and 5% CO2. A volume of 15 μL of Alamar Blue reagent is added to each well and plates are incubated for 5 hours at 37° C. and 5% CO2. Alamar Blue fluoresce is read at 560Ex/590Em, and IC50 or EC50 values are calculated using GraphPad Prism 5.

[3] = biological target: T2, PI3Kδ (Homo sapiens, UniProt O00329); assay: PI3 Kinase HTRF assay, PI3Kδ; format: biochemical; conditions: Between 1 μM and 10 μM; read-out: PI3K δ IC50
T2 construct: purchased Millipore Corporation 14-604-K
T2 sequence (O00329 whole entry): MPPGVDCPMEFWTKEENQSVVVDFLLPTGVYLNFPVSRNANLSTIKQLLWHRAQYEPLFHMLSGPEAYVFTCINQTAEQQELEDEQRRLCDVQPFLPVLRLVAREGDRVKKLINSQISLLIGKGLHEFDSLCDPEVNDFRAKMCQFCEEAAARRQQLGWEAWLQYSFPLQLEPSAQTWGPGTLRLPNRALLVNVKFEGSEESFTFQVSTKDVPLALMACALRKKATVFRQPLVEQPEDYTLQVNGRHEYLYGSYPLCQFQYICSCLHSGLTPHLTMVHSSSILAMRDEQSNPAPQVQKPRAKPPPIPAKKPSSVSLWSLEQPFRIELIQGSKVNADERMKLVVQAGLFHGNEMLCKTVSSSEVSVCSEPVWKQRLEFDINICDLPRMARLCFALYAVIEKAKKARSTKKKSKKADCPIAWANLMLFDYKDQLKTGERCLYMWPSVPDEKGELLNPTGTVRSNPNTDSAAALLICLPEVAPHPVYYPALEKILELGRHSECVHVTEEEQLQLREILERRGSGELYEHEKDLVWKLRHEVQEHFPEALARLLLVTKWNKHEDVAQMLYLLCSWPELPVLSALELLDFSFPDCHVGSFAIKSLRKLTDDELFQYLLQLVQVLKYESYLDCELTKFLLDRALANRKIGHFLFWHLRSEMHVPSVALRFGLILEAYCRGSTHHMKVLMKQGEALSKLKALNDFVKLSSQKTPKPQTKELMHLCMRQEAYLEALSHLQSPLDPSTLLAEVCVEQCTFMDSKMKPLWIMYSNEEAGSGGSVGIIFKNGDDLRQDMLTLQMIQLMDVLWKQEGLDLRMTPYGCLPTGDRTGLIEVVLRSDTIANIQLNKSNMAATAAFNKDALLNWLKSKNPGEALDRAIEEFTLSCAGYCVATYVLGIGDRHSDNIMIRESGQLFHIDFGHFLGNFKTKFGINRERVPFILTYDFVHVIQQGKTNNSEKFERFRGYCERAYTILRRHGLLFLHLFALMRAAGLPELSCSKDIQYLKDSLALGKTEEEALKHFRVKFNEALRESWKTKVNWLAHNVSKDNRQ
T2 sequence (P27986 whole entry partner): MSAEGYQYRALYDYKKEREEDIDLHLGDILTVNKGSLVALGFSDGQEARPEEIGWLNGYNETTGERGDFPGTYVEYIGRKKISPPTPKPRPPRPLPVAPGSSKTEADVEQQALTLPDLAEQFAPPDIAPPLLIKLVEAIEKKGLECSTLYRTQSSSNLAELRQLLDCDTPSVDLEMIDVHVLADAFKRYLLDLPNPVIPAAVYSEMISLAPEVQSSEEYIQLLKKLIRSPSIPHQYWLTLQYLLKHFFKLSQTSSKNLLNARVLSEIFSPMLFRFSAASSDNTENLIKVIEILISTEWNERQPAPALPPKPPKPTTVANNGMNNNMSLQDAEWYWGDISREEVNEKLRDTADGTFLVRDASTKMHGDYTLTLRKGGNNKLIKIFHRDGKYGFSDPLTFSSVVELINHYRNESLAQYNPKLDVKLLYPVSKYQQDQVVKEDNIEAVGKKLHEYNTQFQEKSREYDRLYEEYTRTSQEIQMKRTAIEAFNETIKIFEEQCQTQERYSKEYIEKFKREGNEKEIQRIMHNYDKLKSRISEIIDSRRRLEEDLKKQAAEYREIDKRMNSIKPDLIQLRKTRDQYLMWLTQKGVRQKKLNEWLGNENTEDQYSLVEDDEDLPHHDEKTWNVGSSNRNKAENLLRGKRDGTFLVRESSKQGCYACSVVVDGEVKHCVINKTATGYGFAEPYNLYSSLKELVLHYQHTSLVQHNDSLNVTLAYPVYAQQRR
From the text: as §1, §2

[4] = tested on: B6.Sle1z.Sle3z model; conditions: cited from earlier work
[5] = human plasma, 5 μM; cited from earlier work
[6] = tested on: p190 transduced leukemic cells; conditions: about 70 mg/kg twice daily; cited from earlier work
[7] = tested on: phospho-AKT in 786-O cells; assay: PI3Kβ selective cellular assay, phospho-AKT in 786-O cells; format: cell-based; conditions: Homo sapiens, 786-0, 786-O cell model
From the text: A compound's ability in selectively inhibiting PI3Kβ can be assessed using 786-O cells, i.e., human kidney carcinoma cell line. Briefly, 786-O cells, in which PI3Kβ is constitutively active, can be treated with test compounds. Test compounds' ability to inhibit AKT phosphorylation in 786-O cells, therefore, is indicative of selective inhibition of PI3Kβ. Thus, by monitoring the reduction of phospho-AKT in 786-O cells (using for example, phospho-AKT antibodies), a compound's potential efficacy in selectively inhibiting PI3Kβ can be assessed.
Certain compounds provided herein (e.g., Compounds 5, 38, 103, and 106) were tested in 786-O cell model using procedures as described above.

[8] = tested on: phospho-AKT in RAW 264.7 cells; assay: PI3Kγ selective cellular assay, phospho-AKT in C5a stimulated RAW 264.7 cells; format: cell-based; conditions: Mus musculus, RAW264.7, RAW 264.7 cell model
From the text: A compound's ability in selectively inhibiting PI3Kγ can be assessed using RAW264.7 macrophages. Briefly, serum-starved PAW264.7 cells are stimulated with a known GPCR agonist C5a. (See, e.g., Camps et al., Nature Medicine (2005) 11(9): 936-943). Cells can be treated with test compounds prior to, simultaneously with, or subsequent to the stimulation by C5a. RAW 264.7 cells respond to the complement component fragment C5a through activation of the C5a receptor, and the C5a receptor activates macrophages and induces cell migration. Test compounds' ability to inhibit C5a-mediated AKT phosphorylation is indicative of selective inhibition of PI3Kγ. Thus, by monitoring the reduction of phospho-AKT in stimulated RAW 264.7 cells (using for example, phospho-AKT antibodies), a compound's potential efficacy in selectively inhibiting PI3Kγ can be assessed.
Certain compounds provided herein (e.g., Compounds 5, 38, 103, 105, 106, 107, 108, and 109) were tested in RAW 264.7 cell model using procedures as described above.

[9] = tested on: phospho-AKT in RAJI cells; assay: PI3Kδ selective cellular assay, phospho-AKT in anti-IgM stimulated RAJI cells; format: cell-based; conditions: Homo sapiens; RAJI cell model
From the text: A compound's ability in selectively inhibiting PI3Kδ can be assessed using RAJI cells, i.e., B lymphocyte cells derived from lymphoma patients. Briefly, serum-starved RAJI cells are stimulated with anti-human IgM, thereby causing signaling through the B-cell receptors, as described in, for example, He et al., Leukemia Research (2009) 33: 798-802. B-cell receptor signaling is important for the activation, differentiation, and survival of B cells and certain B-cell derived cancers. Reduction of phospho-AKT is indicative of compounds that may inhibit B-cell proliferation and function in certain diseases. By monitoring the reduction of phospho-AKT in stimulated RAJI cells (using for example, phospho-AKT antibodies), a compound's potential efficacy in selectively inhibiting PI3Kδ can be assessed.
Certain compounds provided herein (e.g., Compounds 5, 38, 103, 105, 106, 107, 108, and 109) were tested in RAJI cell model using procedures as described above.

[10] = biological target: T3, PI3Kβ (Homo sapiens, UniProt P42338); assay: PI3 Kinase HTRF assay, PI3Kβ; format: biochemical; conditions: Between 1 μM and 10 μM; read-out: PI3K β IC50
T3 construct: purchased Millipore Corporation 14-603-K
T3 sequence (P42338 whole entry): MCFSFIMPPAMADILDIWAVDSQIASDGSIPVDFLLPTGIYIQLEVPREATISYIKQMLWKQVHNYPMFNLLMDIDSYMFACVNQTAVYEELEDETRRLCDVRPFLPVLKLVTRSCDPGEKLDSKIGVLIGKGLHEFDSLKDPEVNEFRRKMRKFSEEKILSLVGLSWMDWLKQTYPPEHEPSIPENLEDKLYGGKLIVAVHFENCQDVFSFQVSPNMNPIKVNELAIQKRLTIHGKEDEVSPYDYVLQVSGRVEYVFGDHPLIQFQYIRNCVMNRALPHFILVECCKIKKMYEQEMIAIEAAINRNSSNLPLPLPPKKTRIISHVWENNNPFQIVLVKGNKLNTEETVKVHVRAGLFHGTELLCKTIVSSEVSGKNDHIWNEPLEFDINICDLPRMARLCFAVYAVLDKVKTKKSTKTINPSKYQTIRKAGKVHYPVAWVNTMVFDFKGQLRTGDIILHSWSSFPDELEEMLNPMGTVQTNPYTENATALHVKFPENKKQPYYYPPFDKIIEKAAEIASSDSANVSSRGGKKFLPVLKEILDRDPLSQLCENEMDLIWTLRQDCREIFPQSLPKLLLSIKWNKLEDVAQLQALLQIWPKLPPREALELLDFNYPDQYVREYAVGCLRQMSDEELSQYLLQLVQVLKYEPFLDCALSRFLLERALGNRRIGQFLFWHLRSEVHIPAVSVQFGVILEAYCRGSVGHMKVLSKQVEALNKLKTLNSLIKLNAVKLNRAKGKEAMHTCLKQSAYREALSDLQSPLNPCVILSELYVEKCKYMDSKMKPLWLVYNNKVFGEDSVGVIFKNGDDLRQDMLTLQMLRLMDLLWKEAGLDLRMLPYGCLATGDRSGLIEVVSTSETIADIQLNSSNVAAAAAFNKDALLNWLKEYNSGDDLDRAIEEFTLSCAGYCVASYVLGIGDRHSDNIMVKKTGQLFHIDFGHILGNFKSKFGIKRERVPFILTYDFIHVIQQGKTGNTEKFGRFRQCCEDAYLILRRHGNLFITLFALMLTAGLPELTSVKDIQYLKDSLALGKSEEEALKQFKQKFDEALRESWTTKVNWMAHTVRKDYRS
T3 sequence (P27986 2-724 partner limits assumed): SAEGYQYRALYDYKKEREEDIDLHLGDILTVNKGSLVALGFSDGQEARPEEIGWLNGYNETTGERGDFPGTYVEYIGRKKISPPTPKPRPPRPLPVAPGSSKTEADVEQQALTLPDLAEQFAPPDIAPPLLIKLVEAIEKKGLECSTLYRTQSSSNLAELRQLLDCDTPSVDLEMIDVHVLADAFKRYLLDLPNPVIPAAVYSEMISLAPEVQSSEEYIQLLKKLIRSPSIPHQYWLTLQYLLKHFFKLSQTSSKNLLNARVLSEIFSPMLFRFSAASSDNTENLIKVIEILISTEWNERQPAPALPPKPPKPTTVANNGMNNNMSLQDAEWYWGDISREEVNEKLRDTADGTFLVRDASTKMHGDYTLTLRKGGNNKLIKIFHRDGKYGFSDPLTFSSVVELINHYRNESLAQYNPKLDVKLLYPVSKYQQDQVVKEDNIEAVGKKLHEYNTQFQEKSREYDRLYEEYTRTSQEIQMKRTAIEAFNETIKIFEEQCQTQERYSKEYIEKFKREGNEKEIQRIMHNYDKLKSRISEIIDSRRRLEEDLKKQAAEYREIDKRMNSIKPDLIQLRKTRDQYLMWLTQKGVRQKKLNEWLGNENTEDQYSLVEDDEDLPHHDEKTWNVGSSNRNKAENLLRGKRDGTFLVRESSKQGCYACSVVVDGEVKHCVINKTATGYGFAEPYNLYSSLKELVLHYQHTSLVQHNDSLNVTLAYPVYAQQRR
From the text: as §1, §2

[11] = tested on: phospho-AKT in SKOV-3 cells; assay: PI3Kα selective cellular assay, phospho-AKT in SKOV-3 cells; format: cell-based; conditions: Homo sapiens, SK-OV-3, SKOV-3 cell model
From the text: A compound's ability in selectively inhibiting PI3Kα can be assessed using SKOV-3 cells, i.e., human ovarian carcinoma cell line. Briefly, SKOV-3 cells, in which mutant PI3Kα is constitutively active, can be treated with test compounds. Test compounds' ability to inhibit AKT phosphorylation in SKOV-3 cells, therefore, is indicative of selective inhibition of PI3Kα. Thus, by monitoring the reduction of phospho-AKT in SKOV-3 cells (using for example, phospho-AKT antibodies), a compound's potential efficacy in selectively inhibiting PI3Kα can be assessed.
Certain compounds provided herein (e.g., Compounds 5, 38, 103, and 106) were tested in SKOV-3 cell model using procedures as described above.

[12] = biological target: T4, PI3Kα (Homo sapiens, UniProt P42336); assay: PI3 Kinase HTRF assay, PI3Kα; format: biochemical; conditions: Between 1 μM and 10 μM; read-out: PI3K α IC50
T4 construct: purchased Millipore Corporation 14-602-K
From the text: as §1, §2

[13] = PBS pH 7.4, 37° C., 24 hours, 5 μM; cited from earlier work
[14] = tested on: NZB/W model; conditions: prophylactic and therapeutic model; cited from earlier work
[15] = range between 100 nM and 1 μM (bounds carry own units)

T1 sequence (P48736 whole entry): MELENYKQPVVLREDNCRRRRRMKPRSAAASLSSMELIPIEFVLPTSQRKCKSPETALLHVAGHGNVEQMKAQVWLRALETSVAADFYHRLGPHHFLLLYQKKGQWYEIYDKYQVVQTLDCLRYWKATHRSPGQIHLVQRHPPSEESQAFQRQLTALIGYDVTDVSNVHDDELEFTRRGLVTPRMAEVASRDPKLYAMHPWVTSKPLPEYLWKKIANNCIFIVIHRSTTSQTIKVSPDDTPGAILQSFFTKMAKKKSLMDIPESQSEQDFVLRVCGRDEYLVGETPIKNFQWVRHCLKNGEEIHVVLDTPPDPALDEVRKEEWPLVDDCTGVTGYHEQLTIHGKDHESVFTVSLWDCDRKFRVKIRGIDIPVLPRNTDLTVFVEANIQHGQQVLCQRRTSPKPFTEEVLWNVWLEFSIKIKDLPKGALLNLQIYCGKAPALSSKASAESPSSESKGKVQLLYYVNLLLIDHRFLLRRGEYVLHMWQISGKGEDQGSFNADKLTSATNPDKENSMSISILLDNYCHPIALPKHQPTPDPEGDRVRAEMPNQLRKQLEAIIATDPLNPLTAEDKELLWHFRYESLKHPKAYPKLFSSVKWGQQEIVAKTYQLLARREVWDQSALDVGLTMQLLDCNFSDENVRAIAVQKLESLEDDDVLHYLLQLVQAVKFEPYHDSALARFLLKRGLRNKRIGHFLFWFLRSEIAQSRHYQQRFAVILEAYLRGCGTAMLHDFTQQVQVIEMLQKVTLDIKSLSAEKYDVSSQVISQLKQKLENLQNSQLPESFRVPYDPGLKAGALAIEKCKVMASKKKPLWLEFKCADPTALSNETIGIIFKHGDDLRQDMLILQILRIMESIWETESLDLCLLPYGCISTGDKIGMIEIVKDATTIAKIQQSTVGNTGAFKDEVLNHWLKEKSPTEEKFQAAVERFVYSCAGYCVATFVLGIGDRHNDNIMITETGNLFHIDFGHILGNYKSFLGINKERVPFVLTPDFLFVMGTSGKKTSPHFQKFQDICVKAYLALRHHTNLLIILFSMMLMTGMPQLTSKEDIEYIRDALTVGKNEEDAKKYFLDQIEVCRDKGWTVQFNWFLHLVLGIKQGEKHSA

- IC50 [1]: 1 to 10 µM
- IC50 [3]: 1 to 10 µM
SMILES: C[C@H](Nc1ncnc2scnc12)c1cc2cccc(C(=O)O)c2c(=O)n1-c1ccccc1 [Compound 84]
- EC50 ([2]; Between 100 nM and 1 μM): 0.1 to 1 µM

- IC50 [7, 15]: 0.1 to 1 µM
- IC50 [8, 15]: 0.1 to 1 µM
- IC50 [9]: < 0.1 µM
- IC50 [10]: 1 to 10 µM
- IC50 [11, 15]: 0.1 to 1 µM
- IC50 [12]: 1 to 10 µM
SMILES: CC(C)n1c([C@H](C)Nc2ncnc3scnc23)cc2cccc(-c3ccc(=O)n(C)c3)c2c1=O [Compound 103]

- IC50 [7]: 1 to 10 µM
- IC50 [8, 15]: 0.1 to 1 µM
- IC50 [9]: < 0.1 µM
- IC50 [10]: 1 to 10 µM
- IC50 [11]: 1 to 10 µM
- IC50 [12]: 1 to 10 µM
SMILES: COc1ncc(-c2cccc3cc([C@H](C)Nc4ncnc5scnc45)n(-c4ccccc4)c(=O)c23)cn1 [Compound 38]
- EC50 ([2]; Less than 100 nanoMolar): < 0.1 µM

- IC50 [1]: 1 to 10 µM
- IC50 [3]: 1 to 10 µM
SMILES: C[C@H](Nc1ncnc2scnc12)c1cc2cccc(-c3cnc4c(c3)CCCC4)c2c(=O)n1-c1ccccc1 [Compound 59]
- EC50 ([2]; Between 1 μM and 10 μM): 1 to 10 µM

- IC50 [7, 15]: 0.1 to 1 µM
- IC50 [8]: 1 to 10 µM
- IC50 [9]: < 0.1 µM
- IC50 [10]: 1 to 10 µM
- IC50 [11, 15]: 0.1 to 1 µM
- IC50 [12]: 1 to 10 µM
SMILES: COc1ncc(-c2cccc3cc([C@H](C)Nc4ncnc5scnc45)n(-c4ccon4)c(=O)c23)cn1 [Compound 106]

- IC50 [3]: 1 to 10 µM
SMILES: Cc1nc2c(N[C@@H](C)c3cc4cccc(Cl)c4c(=O)n3-c3cccc(F)c3)ncnc2s1 [Compound 78]

- IC50 [1]: 1 to 10 µM
- IC50 [3]: 1 to 10 µM
SMILES: Cc1nc2c(N[C@@H](C)c3cc4cccc(-c5cnn(C)c5)c4c(=O)n3-c3ccccc3)ncnc2s1 [Compound 79]

More lines, now with the values behind:

SMILES: CO[C@H]1C[C@@H]2CC[C@@H](C)[C@@](O)(O2)C(=O)C(=O)N2CCCC[C@H]2C(=O)O[C@H]([C@H](C)C[C@@H]2CC[C@@H](OCCO)[C@H](OC)C2)CC(=O)[C@H](C)/C=C(\C)[C@@H](O)[C@@H](OC)C(=O)[C@H](C)C[C@H](C)/C=C/C=C/C=C/1C [RAD001, everolimus]
- lupus symptoms [4]: ameliorate lupus symptoms

SMILES: CC(C)[N+](C)(CCOC(=O)C1c2ccccc2Oc2ccccc21)C(C)C [propantheline]
- plasma stability [5]: intermediate plasma stability

SMILES: Cc1ccc(NC(=O)c2ccc(CN3CCN(C)CC3)cc2)cc1Nc1nccc(-c2cccnc2)n1 [imatinib, Imatinib Mesylate]
- leukemogenesis [6]: delay but not cure leukemogenesis

SMILES: O=C(O)CCCc1ccc(N(CCCl)CCCl)cc1 [chlorambucil]
- chemical stability [13]: largely hydrolyzed over the course of 24 hours

SMILES: CC(C)C[C@H](NC(=O)[C@H](Cc1ccccc1)NC(=O)c1cnccn1)B(O)O [Bortezimib, bortezomib]
- disease in NZB/W model [14]: effective at blocking disease

SMILES: CCCOc1cc(N)ccc1C(=O)OCCN(CC)CC [propoxycaine]
- plasma stability [5]: low plasma stability
